Columns and labels:
[1] = tested on: Notch; conditions: Tammam et al., 2009; cited from earlier work
[2] = tested on: Notch reporter; experiment: Notch reporter assay in MC3T3-E1 osteoblasts cocultured with JAG1 OE tumor cells; assay type: cell-based, mouse; conditions: 6-fold increase induced by JAG1 OE tumor cell coculture; FIG. 7A
Protocol: For transfection experiments, MC3T3-E1 osteoblasts were seeded at 2×10^5 cells/well in 12-well plates and grown to 95% confluence. For reporter assays, the firefly luciferase Notchreporter (Zeng et al., 2005, which is incorporated herein by reference as if fully set forth) and cytomegalovirus (CMV)-Renilla luciferase control (Promega) plasmids were transfected using Lipofectamine 2000 at concentrations designated by the manufacturer's instructions. After 4 hours, the transfection media was changed to regular media containing 1×10^5 vector control or JAG1 OE tumor cells per well and plated in triplicate in the presence of DMSO or MRK-003. Following 2 days, the coculture was lysed and subjected to a luciferase assay in which firefly counts (Notch reporter activity) was divided by renilla counts to normalize for transfection efficiency. For siRNA transfection experiments, a scrambled control siRNA or two distinct targeting siRNAs against Rbpj #1-[…] [SEQ ID NO: 6] and #2-[…] [SEQ ID NO: 7] or Hey1 #1-[…] [SEQ ID NO: 8] and #2-[…] [SEQ ID NO: 9] […] Following 6 days, the coculture was lysed and subjected to a luciferase assay to selectively quantify the number of tumor cells. For gene expression analysis, RNA from cocultures was collected in RLT lysis buffer, extracted with RNeasy mini kit (Qiagen), and subjected to quantitative RT-PCR.

[3] = tested on: SCP28 tumor cells cocultured with MC3T3-E1 osteoblasts; experiment: Osteoblast coculture tumor cell quantification by luciferase assay; assay type: cell-based, human; conditions: luciferase assay after 6 days; MRK-003 1 μM or 5 μM; anti-IL-6 0.5 and 1.0 μg/ml
Protocol: MC3T3-E1 cells were seeded at 2×10^5 cells/well in 12-well plates. After confluence was achieved, luciferase/GFP-labeled (GFP+) control and JAG1 OE cells were added at 1×10^4 cells/well in triplicate and treated with DMSO or 1 μM MRK-003. Media supplemented with appropriate drugs were changed every 2 days. After 6 days the coculture was subjected to a luciferase assay to selectively quantify the number of tumor cells. These values were normalized against luciferase quantification of 12-well plates seeded with tumor cells alone.
For transfection experiments, MC3T3-E1 osteoblasts were seeded at 2×10^5 cells/well in 12-well plates and grown to 95% confluence. […] Following 6 days, the coculture was lysed and subjected to a luciferase assay to selectively quantify the number of tumor cells. For gene expression analysis, RNA from cocultures was collected in RLT lysis buffer, extracted with RNeasy mini kit (Qiagen), and subjected to quantitative RT-PCR.
For in vitro experiments, GSI-IX (Calbiochem) and TGFβ Receptor 1 (EMD Biosciences 616451) were dissolved in DMSO. […] RNA and protein were collected and analyzed for JAGGED1 expression as described above. […]

[4] = tested on: Notch target genes and IL-6; experiment: Species-specific qRT-PCR of the stromal compartment of bone metastases; assay type: in vivo; conditions: mouse-specific qRT-PCR; FIG. 17A
Protocol: (§1) RNA from in vitro cultured cells or flow cytometry-separated cells was collected in RLT lysis buffer and extracted with RNeasy mini kit (Qiagen). RNA extraction from in vivo tissue samples was performed using Trizol (Invitrogen) according to the manufacturer's protocol. cDNA synthesis of RNA was performed using Superscript III First-Strand (Invitrogen). Quantitative RT-PCR was performed using Power Syber Green PCR Master Mix (Applied Biosystems) with the ABI Prism 7900HT thermocycler (Applied Biosystems) according to the manufacturer's protocol. A standard curve for each gene was generated by serial dilutions of a standard. Values were then normalized by the amount of GAPDH or β-actin in each sample. For in vivo samples, species-specific primers were employed for gene expression analysis in the tumor compartment (human) versus stroma compartment (mouse).

[5] = tested on: MDA231 sublines (SCP28 tumor cells); experiment: Proliferation of tumor cells cultured alone; assay type: cell-based, human
[6] = tested on: IL-6; experiment: Murine IL-6 ELISA and qRT-PCR in osteoblast cocultures; assay type: cell-based, mouse; conditions: JAG1 OE coculture with MC3T3-E1; FIGS. 13B, 13C, 13E
Protocol: Quantitative levels of murine IL-6 in the conditioned medium of cultured and cocultured cells were determined in triplicate by ELISA according to the manufacturer's protocol (Quantikine immunoassay kit, R&D systems).
as §1

O=S1(=O)N[C@@]2(CN1CC(F)(F)F)[C@@H]1CC[C@H]2Cc2ccc(/C=C/CN3CCC(C(F)(F)F)CC3)cc2C1 [MRK-003]
duration of target engagement sufficient to induce potent Notch inhibition [1]: 48 h
Notch activity (Notch reporter) [2]: abolished
growth advantage of JAG1 OE tumor cells in osteoblast coculture [3]: abolished
expression levels of Notch target genes and IL-6 in the stromal compartment of bone metastases [4]: significantly reduced
proliferative ability of tumor cells cultured alone ([5]; JAG1 OE SCP28 without osteoblasts, FIGS. 9B-9C): did not affect
proliferation assays of MDA231 sublines, control vs treated ([5]; relatively low concentrations sufficient to inhibit Notch in bone-specific cells): no difference
IL-6 transcription and secretion from osteoblasts [6]: dependent on the Notch pathway

Reference: patent publication US20150329918A1, “JAGGED1 AS A MARKER AND THERAPEUTIC TARGET FOR BREAST CANCER BONE METASTASIS” (The Trustees of Princeton University, priority 2011, published 2015)
